Test results from patent US20230181519A1, “Compositions And Methods For Treating Nicotine-Related Disorders And Symptoms Using Dihydromyricetin” (priority 2021, published 2023).
Entries after “also recorded” stand apart in the source; their conditions may differ.

How the values were obtained:
[1] = test system: VTA DA neurons; assay: VTA dopamine neuronal firing in VTA slices (cell-attached recording); assay type: cell-based, mouse
Description: In this example, the effects of DHM on mouse ventral tegmental area (“VTA”) dopamine (“DPA”) neuronal firing in slices were measured.

[2] = target: T1, α4β2-nAChRs (Homo sapiens, UniProt P17787+P43681); assay: ACh-induced whole-cell currents of transfected α4β2-nAChRs in SH-EP1 cells; assay type: cell-based; settings: DHM co-applied at different concentrations, SH-EP1 cells (FIG. 1)
T1 construct: expressed in transfected cells; host or cells: human SH-EP1 cells
T1 sequence (P43681 29-627 limits assumed): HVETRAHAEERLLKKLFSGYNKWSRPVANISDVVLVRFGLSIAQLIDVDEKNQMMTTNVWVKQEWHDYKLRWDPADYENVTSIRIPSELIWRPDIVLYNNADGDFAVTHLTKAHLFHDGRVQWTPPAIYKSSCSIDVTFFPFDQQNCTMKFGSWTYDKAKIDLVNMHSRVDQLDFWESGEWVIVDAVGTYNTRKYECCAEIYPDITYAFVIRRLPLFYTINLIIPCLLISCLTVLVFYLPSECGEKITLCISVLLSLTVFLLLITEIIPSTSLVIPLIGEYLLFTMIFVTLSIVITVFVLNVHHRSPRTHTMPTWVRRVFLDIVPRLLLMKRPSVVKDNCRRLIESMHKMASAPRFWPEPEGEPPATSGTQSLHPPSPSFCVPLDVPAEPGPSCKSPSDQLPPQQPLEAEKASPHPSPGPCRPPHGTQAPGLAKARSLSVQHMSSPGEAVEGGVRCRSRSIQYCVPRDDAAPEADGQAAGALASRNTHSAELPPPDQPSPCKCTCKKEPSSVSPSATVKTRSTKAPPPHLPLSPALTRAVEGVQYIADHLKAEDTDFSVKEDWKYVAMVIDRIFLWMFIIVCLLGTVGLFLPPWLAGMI
T1 sequence (P17787 26-502): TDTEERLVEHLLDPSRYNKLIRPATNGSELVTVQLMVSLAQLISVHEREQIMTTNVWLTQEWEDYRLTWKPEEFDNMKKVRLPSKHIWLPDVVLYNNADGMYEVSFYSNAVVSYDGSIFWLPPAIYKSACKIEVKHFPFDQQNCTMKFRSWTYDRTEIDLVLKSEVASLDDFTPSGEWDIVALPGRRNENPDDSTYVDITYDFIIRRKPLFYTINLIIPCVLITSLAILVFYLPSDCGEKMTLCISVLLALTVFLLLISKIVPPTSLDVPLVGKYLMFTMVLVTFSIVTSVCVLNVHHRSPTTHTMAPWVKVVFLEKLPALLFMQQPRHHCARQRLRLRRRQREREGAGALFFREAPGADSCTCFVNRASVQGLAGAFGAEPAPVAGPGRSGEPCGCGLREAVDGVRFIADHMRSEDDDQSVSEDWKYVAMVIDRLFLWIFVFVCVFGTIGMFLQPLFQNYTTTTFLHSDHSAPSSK
Description: In this example, the effects of DHM on transfected α4β2-nAChRs in human SH-EP1 cells (a model system to study human acetylcholine (“ACh”) receptors) were measured. Traces of ACh-induced whole-cell currents co-applied with different concentrations of DHM were created and examined.

[3] = test system: VTA DA neurons; assay: VTA DA neuronal firing in anesthetized mice (in vivo recording); settings: i.v.
Excerpt: Part C is after in vivo recording. The recording site was dyed using blue-sky dye, and confirmed by cutting brain sections that contained VTA.

[4] = test system: C57BL/J mice; assay: NIC-induced behavioral sensitization (local motor activity); assay type: in vivo
Description: In this example, the effects of DHM on NIC-induced behavioral sensitization in mice were measured.
C57BL/J mice were repetitively treated with NIC (0.5 mg/kg, i.p.), and the local motor activities were measured.

[5] = test system: NIC-induced conditioned-place preference; assay: NIC-induced conditioned-place preference (CPP); assay type: in vivo
Description: In this example, the effects of DHM on NIC-induced conditioned-place preference (“CCP”) were measured.
Part A is the CPP performance protocol.

[6] = NIC 0.5 mg/kg, anesthetized mice (FIG. 3 B)
[7] = NIC 0.5 mg/kg, i.p., repetitive, C57BL/J mice (FIG. 6)

| a4b2-nAChR-mediated whole-cell currents [2] | Compound | NIC-induced enhancement of AP firing rate, effect of DHM ([1]; VTA slices (FIG. 2 C, D)) | DA neuron firing rate, effect of DHM itself ([1]; VTA slices, different concentrations of DHM (FIG. 2 D)) | DA neuronal firing rate, effect of DHM ([3]; DHM 1 and 10 mg/kg, anesthetized mice (FIG. 4)) | NIC-induced AP firing increase, effect of DHM ([3]; DHM 1 and 10 mg/kg, anesthetized mice (FIG. 4 D)) | NIC-induced behavioral sensitization (local motor activity), effect of DHM ([4]; NIC group vs NIC+DHM group (FIG. 7)) | NIC-induced CPP, overall ([5]; FIG. 5) | NIC-induced CPP after withdrawal 5 days of NIC (day 19) ([5]; FIG. 5 B, C) | NIC-induced CPP at test day (day 13) ([5]; FIG. 5 C) | AP firing rate of DA neurons, effect of bath-applied nicotine ([1]; VTA slices, cell-attached recording (FIG. 2 A, B)) | DA neuronal firing, time-frequency relationship after NIC ([3]; NIC 0.5 mg/kg, anesthetized mice (FIG. 3 A)) | AP firing rate after systemic injection of NIC [3, 6] | bursting firing after systemic injection of NIC [3, 6] | slow oscillations (SO) after systemic injection of NIC [3, 6] | motor activity (total move distance) with repetitive injections of NIC [4, 7] | motor activity after withdrawal at 5 and 10 days [4, 7] |
| --- | --- | --- | --- | --- | --- | --- | --- | --- | --- | --- | --- | --- | --- | --- | --- | --- |
| inhibited | O=C1c2c(O)cc(O)cc2O[C@H](c2cc(O)c(O)c(O)c2)[C@H]1O [DHM, dihydromyricetin] | abolished; also recorded: prevented | reduced DA firing | reduced | abolished | significantly reduced; also recorded: inhibits | significantly reduces; also recorded: inhibits | abolished | abolished | – | – | – | – | – | – | – |
| – | CN1CCCC1c1cccnc1 (stereo not shown) [NIC, nicotine] | – | – | – | – | – | – | – | – | enhancement of AP firing rate | an initial reduction following by a long-lasting increase | enhanced | enhanced | reduction | increased | still maintained at a high level |
